Data from PubChem BioAssay (NCI).
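The compound was tested at five concentrations on cells cultured in 96-well plates, with a 48-hour exposure period. GI50 is the concentration that inhibits growth by half. TGI is the concentration that stops growth completely.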

Assays:
Assay in all cases: NCI tumour cell line growth inhibition, 48 h
786-0 renal = system: 786-0 renal
A498 renal = system: A498 renal
A549 NSCLC = system: A549 NSCLC
ACHN renal = system: ACHN renal
BT-549 breast = system: BT-549 breast
CAKI-1 renal = system: CAKI-1 renal
CCRF-CEM leukemia = system: CCRF-CEM leukemia
COLO 205 colon = system: COLO 205 colon
DU-145 prostate = system: DU-145 prostate
EKVX NSCLC = system: EKVX NSCLC
HCC-2998 colon = system: HCC-2998 colon
HCT-116 colon = system: HCT-116 colon
HCT-15 colon = system: HCT-15 colon
HL-60(TB) leukemia = system: HL-60(TB) leukemia
HOP-62 NSCLC = system: HOP-62 NSCLC
HS 578T breast = system: HS 578T breast
HT29 colon = system: HT29 colon
IGROV1 ovarian = system: IGROV1 ovarian
K-562 leukemia = system: K-562 leukemia
KM12 colon = system: KM12 colon
LOX IMVI melanoma = system: LOX IMVI melanoma
M14 melanoma = system: M14 melanoma
MALME-3M melanoma = system: MALME-3M melanoma
MCF7 breast = system: MCF7 breast
MDA-MB-231 breast = system: MDA-MB-231 breast
MDA-MB-435 = system: MDA-MB-435
MOLT-4 leukemia = system: MOLT-4 leukemia
NCI-H226 lung = system: NCI-H226 lung
NCI-H23 lung = system: NCI-H23 lung
NCI-H460 lung = system: NCI-H460 lung
NCI-H522 lung = system: NCI-H522 lung
NCI/ADR-RES ovarian = system: NCI/ADR-RES ovarian
OVCAR-3 ovarian = system: OVCAR-3 ovarian
OVCAR-4 ovarian = system: OVCAR-4 ovarian
OVCAR-5 ovarian = system: OVCAR-5 ovarian
OVCAR-8 ovarian = system: OVCAR-8 ovarian
RPMI-8226 leukemia = system: RPMI-8226 leukemia
RXF 393 renal = system: RXF 393 renal
SF-268 CNS = system: SF-268 CNS
SF-295 CNS = system: SF-295 CNS
SF-539 CNS = system: SF-539 CNS
SK-MEL-2 melanoma = system: SK-MEL-2 melanoma
SK-MEL-28 melanoma = system: SK-MEL-28 melanoma
SK-MEL-5 melanoma = system: SK-MEL-5 melanoma
SK-OV-3 ovarian = system: SK-OV-3 ovarian
SN12C renal = system: SN12C renal
SNB-19 CNS = system: SNB-19 CNS
SNB-75 CNS = system: SNB-75 CNS
SR leukemia = system: SR leukemia
SW-620 colon = system: SW-620 colon
T-47D breast = system: T-47D breast
TK-10 renal = system: TK-10 renal
U251 CNS = system: U251 CNS
UACC-257 melanoma = system: UACC-257 melanoma
UACC-62 melanoma = system: UACC-62 melanoma
UO-31 renal = system: UO-31 renal

CCS/C(Nc1ccccc1)=C(\C#N)C(=O)Nc1ccc(OC)cc1
GI50 (786-0 renal): 4.14 µM
TGI (786-0 renal): > 100 µM
GI50 (A498 renal): 2.54 µM
TGI (A498 renal): 26.6 µM
GI50 (A549 NSCLC): 5.91 µM
TGI (A549 NSCLC): > 100 µM
GI50 (ACHN renal): 5.04 µM
TGI (ACHN renal): > 100 µM
GI50 (BT-549 breast): 2.8 µM
TGI (BT-549 breast): > 100 µM
GI50 (CAKI-1 renal): 3.39 µM
TGI (CAKI-1 renal): > 100 µM
GI50 (CCRF-CEM leukemia): 1.83 µM
TGI (CCRF-CEM leukemia): > 100 µM
GI50 (COLO 205 colon): 3.06 µM
TGI (COLO 205 colon): 11.2 µM
GI50 (DU-145 prostate): 3.48 µM
TGI (DU-145 prostate): 49.8 µM
GI50 (EKVX NSCLC): 4.42 µM
TGI (EKVX NSCLC): > 100 µM
GI50 (HCC-2998 colon): 6.56 µM
TGI (HCC-2998 colon): > 100 µM
GI50 (HCT-116 colon): 1.95 µM
TGI (HCT-116 colon): 16.4 µM
GI50 (HCT-15 colon): 1.19 µM
TGI (HCT-15 colon): > 100 µM
GI50 (HL-60(TB) leukemia): 2.87 µM
TGI (HL-60(TB) leukemia): > 100 µM
GI50 (HOP-62 NSCLC): 5.62 µM
TGI (HOP-62 NSCLC): > 100 µM
GI50 (HS 578T breast): 4.07 µM
TGI (HS 578T breast): > 100 µM
GI50 (HT29 colon): 3.47 µM
TGI (HT29 colon): 33.3 µM
GI50 (IGROV1 ovarian): 5.3 µM
TGI (IGROV1 ovarian): > 100 µM
GI50 (K-562 leukemia): 0.436 µM
TGI (K-562 leukemia): > 100 µM
GI50 (KM12 colon): 2.8 µM
TGI (KM12 colon): > 100 µM
GI50 (LOX IMVI melanoma): 6.16 µM
TGI (LOX IMVI melanoma): > 100 µM
GI50 (M14 melanoma): 2.27 µM
TGI (M14 melanoma): 87.4 µM
GI50 (MALME-3M melanoma): 47.3 µM
TGI (MALME-3M melanoma): > 100 µM
GI50 (MCF7 breast): 2.71 µM
TGI (MCF7 breast): > 100 µM
GI50 (MDA-MB-231 breast): 4.14 µM
TGI (MDA-MB-231 breast): 36.5 µM
GI50 (MDA-MB-435): 0.37 µM
TGI (MDA-MB-435): 1.89 µM
GI50 (MOLT-4 leukemia): 2.61 µM
TGI (MOLT-4 leukemia): > 100 µM
GI50 (NCI-H226 lung): 5.45 µM
TGI (NCI-H226 lung): 50.7 µM
GI50 (NCI-H23 lung): 4.9 µM
TGI (NCI-H23 lung): > 100 µM
GI50 (NCI-H460 lung): 3.14 µM
TGI (NCI-H460 lung): 34.2 µM
GI50 (NCI-H522 lung): 2.2 µM
TGI (NCI-H522 lung): 9.68 µM
GI50 (NCI/ADR-RES ovarian): 2.62 µM
TGI (NCI/ADR-RES ovarian): > 100 µM
GI50 (OVCAR-3 ovarian): 2.6 µM
TGI (OVCAR-3 ovarian): 8.59 µM
GI50 (OVCAR-4 ovarian): 7.61 µM
TGI (OVCAR-4 ovarian): > 100 µM
GI50 (OVCAR-5 ovarian): 5.52 µM
TGI (OVCAR-5 ovarian): > 100 µM
GI50 (OVCAR-8 ovarian): 4.37 µM
TGI (OVCAR-8 ovarian): > 100 µM
GI50 (RPMI-8226 leukemia): 2.52 µM
TGI (RPMI-8226 leukemia): > 100 µM
GI50 (RXF 393 renal): 2.24 µM
TGI (RXF 393 renal): 7.86 µM
GI50 (SF-268 CNS): 6.8 µM
TGI (SF-268 CNS): > 100 µM
GI50 (SF-295 CNS): 3.06 µM
TGI (SF-295 CNS): > 100 µM
GI50 (SF-539 CNS): 1.96 µM
TGI (SF-539 CNS): 4.81 µM
GI50 (SK-MEL-2 melanoma): 3.01 µM
TGI (SK-MEL-2 melanoma): > 100 µM
GI50 (SK-MEL-28 melanoma): 15.3 µM
TGI (SK-MEL-28 melanoma): > 100 µM
GI50 (SK-MEL-5 melanoma): 2.2 µM
TGI (SK-MEL-5 melanoma): 8.19 µM
GI50 (SK-OV-3 ovarian): 3.28 µM
TGI (SK-OV-3 ovarian): 50.2 µM
GI50 (SN12C renal): 5.91 µM
TGI (SN12C renal): > 100 µM
GI50 (SNB-19 CNS): 3.55 µM
TGI (SNB-19 CNS): > 100 µM
GI50 (SNB-75 CNS): 2.13 µM
TGI (SNB-75 CNS): 7.21 µM
GI50 (SR leukemia): 1.54 µM
TGI (SR leukemia): > 100 µM
GI50 (SW-620 colon): 2.55 µM
TGI (SW-620 colon): > 100 µM
GI50 (T-47D breast): 4.08 µM
TGI (T-47D breast): > 100 µM
GI50 (TK-10 renal): 24.3 µM
TGI (TK-10 renal): > 100 µM
GI50 (U251 CNS): 4.42 µM
TGI (U251 CNS): > 100 µM
GI50 (UACC-257 melanoma): 21.2 µM
TGI (UACC-257 melanoma): > 100 µM
GI50 (UACC-62 melanoma): 2.58 µM
TGI (UACC-62 melanoma): > 100 µM
GI50 (UO-31 renal): 5.49 µM
TGI (UO-31 renal): > 100 µM
